Read-outs that look alike come from different tables or passages of the source.
Key:
[1] = tested on: Wolbachia of the target parasite, Brugia malayi; assay: In vitro microfilariae (Mf) Brugia malayi screen, wsp/gst qPCR; format: cell-based; details: B. malayi Mf, 6 days; concentration stands in the drawing (not visible)
Description: An in vitro microfilariae (Mf) assay was used to screen against Wolbachia of the target parasite, Brugia malayi. The Mf were obtained by peritoneal lavage of gerbils (Meriones unguiculatus) harbouring a patent infection of Brugia malayi as described previously (Griffiths et al., 2010, Lab Animal).
Mf were purified using a PD-10 desalting column (Fisher) followed by centrifugation (1200 rpm for 5 minutes at room temperature) then re-suspended in filter-sterilised culture medium consisting of RPMI supplemented with heat-inactivated Foetal Calf Serum (HI-FCS), 1% Penicillin-Streptomycin and 1% Amphotericin B.
After determining the concentration of Mf, the stock solution was diluted in culture medium to ensure a final concentration of 8000 Mf/well of a 96 well plate (100 μl per well). Compounds to be tested (10 mM stock in 100% DMSO) were diluted to appropriate working concentrations in culture medium and 100 μl was added to the appropriate wells of the 96 well plate containing the Mf. Five replicates were used for each compound and each plate contained doxycycline (5 μM) and vehicle (DMSO) controls. The plates were incubated at 37° C., 5% CO2, for 6 days.
On day 6, a visual assessment of motility was performed and wells scored from 0 to 4 (where 0=no movement and 4=highly motile) in order to assess whether there were any direct effects against the Mf. To perform the anti-Wolbachia readout, DNA was extracted from each individual well using the QIAmp DNA Mini Kit (Qiagen) ‘DNA Purification from Tissues’ protocol.
The number of Wolbachia present in Mf was assessed by quantification of the Wolbachia surface protein (wsp) gene copy number and normalised to the nematode glutathione S-transferase (gst) gene by qPCR based on methods described by McGarry et al., 2004, Mol Biochem Parasitol. DNA samples were amplified in duplicate in the following 20 μl reactions containing 1× QuantiTect SYBR Green PCR master mix (Qiagen): for wsp, 0.3 μM each of forward ([…]) and reverse ([…]) primer, 3 mM MgCl2 and 2 μl of DNA. For gst, 0.35 μM of forward ([…]) and reverse primer (ATCACGGACGCCTTCACAG), 3.5 mM MgCl2 and 1 μl of DNA. qPCR was performed using the Bio-Rad CFX384 C1000 thermal cycler (Bio-Rad laboratories LTD) with a denaturation step of 95° C. for 15 min then 40 cycles at 95° C. for 15 s, 57° C. (gst) or 60° C. (wsp) for 30 s, and 72° C. for 30 s. Quantification was determined by Bio-Rad CFX manager software by comparing the DNA samples to that of a standard curve generated from serial dilution of plasmid DNA of the appropriate gene. Data in Table 3 are expressed as a reduction in Wolbachia load in comparison to the vehicle control group and normalized by positive control (doxycycline at 5 μM).

[2] = tested on: Wolbachia in Brugia malayi larvae; assay: Larval Brugia malayi mouse model, Wolbachia wsp qPCR; format: in vivo; details: BALB/c IL4Rα−/− mice, oral; dose/duration stands in the drawing (not visible); larvae recovered 14 days post-infection
Description: In a larval Brugia malayi mouse model treatment groups (BALB/c IL4Rα−/− mice, 6-8 week old) received compounds by oral delivery for 7 to 14 days commencing on the day of intraperitoneal infection with Brugia malayi third-stage larvae. At 14 days post-infection, larvae were recovered from the peritoneal cavity, counted, and length measured. Genomic DNA was extracted from individual worms (10/group) and quantification of the Wolbachia surface protein (wBm-wsp) gene copy numbers performed by quantitative PCR.
Treatment dosage unit is mg/kg (MK) and duration stated in days (d). Abbreviations: DOX (doxycycline), bid (twice daily), Ms (mesylate). Data in Table 4 are expressed as a reduction in Wolbachia load in comparison to the vehicle control group.

[3] = tested on: Brugia malayi microfilariae; assay: Adult Brugia malayi mouse model, microfilaria production; format: in vivo; details: Table 5B
Description: (§1) In an adult Brugia malayi mouse model treatment groups (BALB/c CCR3−/− mice, 6-8 week old) received compounds by oral delivery for 7-28 days beginning at 6-10 weeks post-infection intraperitoneal with Brugia malayi third-stage larvae. Following treatment, at 12 weeks past-infection, adult worms and released microfilariae were recovered from the peritoneal cavity, counted and staged for sex. Genomic DNA was extracted from individual adult worms (10/group) and quantification of the Wolbachia surface protein (wBm-wsp) performed by quantitative PCR.
(§2) Table 5B provides a comparison of two stereoisomers in the adult Brugia malayi mouse model above at a range of doses and durations of treatment. Data in Table 5B are expressed as a reduction in Wolbachia load in comparison to the vehicle control group.

[4] = tested on: Wolbachia in adult Brugia malayi; assay: Adult Brugia malayi mouse model, Wolbachia wsp qPCR; format: in vivo
Description: as §1
Treatment dosage unit is mg/kg (MK) and duration stated in days (d). Abbreviations: MIN (minocycline), bid (twice daily), Ms (mesylate). Data in Table 5A are expressed as a reduction in Wolbachia load in comparison to the vehicle control group.
as §2

[5] = tested on: C6/36 Aedes albopictus cell line infected with Wolbachia pipientis (Wolbachia strain wAlbB); assay: In vitro insect cell line assay (anti-Wolbachia screen, SYTO 11 high content imaging); format: cell-based; details: C6/36 Aedes albopictus cells infected with Wolbachia pipientis wAlbB, 7 days incubation, SYTO 11 imaging, read-out: In vitro anti-Wolbachia activity
How it was run: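 SYTO 11 staining (15 min), high-content imaging and texture analysis were the read-out on day 7. Before that, C6/36 mosquito cells carrying Wolbachia strain wAlbB were incubated at 26 °C with test compound at 5 μM final, alongside DMSO-only control wells.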

[6] = two stereoisomers at a range of doses and durations, dose/duration stands in the drawing (not visible)
[7] = Table 5B, two stereoisomers at a range of doses and durations, dose/duration stands in the drawing (not visible)
[8] = Table 5A, BALB/c CCR3−/− mice, oral, dose/duration stands in the drawing (not visible)

FC1(F)CCN(c2nc(NCc3cccnc3C(F)(F)F)c3cccnc3n2)CC1 [drawing 686]
% Reduction level normalised to DOX (5 μm) [1]: 98.2%
% Wolbachia reduction cf. DMSO [1]: 88.0%

CC1COCCN1c1nc(NCc2cccnc2C(F)(F)F)c2cccnc2n1 (stereo not shown) [drawing 689]
% Wolbachia reduction cf median Vehicle [2]: 99.91%

FC1CCN(c2nc(NCc3cccnc3C(F)(F)F)c3cccnc3n2)CC1 [drawing 685]
% Reduction level normalised to DOX (5 μm) [1]: 97.4%
% Wolbachia reduction cf. DMSO [1]: 87.3%

C[C@@H]1COCCN1c1nc(NCc2cccnc2C(F)(F)F)c2cccnc2n1 [drawing 701]
% Microfilaria (Mf) production reduction cf median Vehicle [3, 6]: 91.4%
% Wolbachia reduction cf median Vehicle [4, 7]: 82.2%

C[C@@H]1COCCN1c1nc(NCc2cccnc2C(F)(F)F)c2cccnc2n1 [drawing 700]
% Microfilaria (Mf) production reduction cf median Vehicle [3, 6]: 100%
% Wolbachia reduction cf median Vehicle [4, 7]: 86.8%

CC1COCCN1c1nc(NCc2cccnc2C(F)(F)F)c2cccnc2n1 (stereo not shown) [drawing 692]
% Wolbachia reduction cf median Vehicle [4, 8]: 97.8%

CC(C)N(C)c1nc(NCc2cccnc2C(F)(F)F)c2cccnc2n1 [drawing 688]
% Wolbachia reduction cf median Vehicle [2]: 99.99%

FC1(F)CCN(c2nc(NCc3cccnc3C(F)(F)F)c3cccnc3n2)CC1 [drawing 690]
% Wolbachia reduction cf median Vehicle [2]: 99.84%

CC(C)N(C)c1nc(NCc2cccnc2C(F)(F)F)c2cccnc2n1 [drawing 691]
% Wolbachia reduction cf median Vehicle [4, 8]: 99.4%

C[C@H]1COCCN1c1nc(NCc2cccnc2C(F)(F)F)c2cccnc2n1 [drawing 696]
% Microfilaria (Mf) production reduction cf median Vehicle [3, 6]: 100%
% Wolbachia reduction cf median Vehicle [4, 7]: 99.9%

C[C@H]1COCCN1c1nc(NCc2cccnc2C(F)(F)F)c2cccnc2n1 [drawing 697]
% Microfilaria (Mf) production reduction cf median Vehicle [3, 6]: 100%
% Wolbachia reduction cf median Vehicle [4, 7]: 97.8%

C[C@H]1COCCN1c1nc(NCc2cccnc2C(F)(F)F)c2cccnc2n1 [drawing 694]
% Wolbachia reduction cf median Vehicle [4, 8]: 98.5%

FC(F)(F)c1ncccc1CNc1nc(N2CCC(Cl)CC2)nc2ncccc12 [drawing 687]
% Reduction level normalised to DOX (5 μm) [1]: 92.9%
% Wolbachia reduction cf. DMSO [1]: 83.3%

C[C@@H]1COCCN1c1nc(NCc2cccnc2C(F)(F)F)c2cccnc2n1 [drawing 699]
% Microfilaria (Mf) production reduction cf median Vehicle [3, 6]: 100%
% Wolbachia reduction cf median Vehicle [4, 7]: 99.6%

C[C@H]1COCCN1c1nc(NCc2cccnc2C(F)(F)F)c2cccnc2n1 [drawing 695]
% Microfilaria (Mf) production reduction cf median Vehicle [3, 6]: 100%
% Wolbachia reduction cf median Vehicle [4, 7]: 99.7%

CC1COCCN1c1nc(NCc2cccnc2C(F)(F)F)c2cccnc2n1 (stereo not shown) [drawing 693]
% Wolbachia reduction cf median Vehicle [4, 8]: 98.8%

CC1COCCN1c1nc(NCc2cccnc2C(F)(F)F)c2cccnc2n1 (stereo not shown) [drawing 684]
% Reduction level normalised to DOX (5 μm) [1]: 99.8%
% Wolbachia reduction cf. DMSO [1]: 89.4%

C[C@@H]1COCCN1c1nc(NCc2cccnc2C(F)(F)F)c2cccnc2n1 [drawing 698]
% Microfilaria (Mf) production reduction cf median Vehicle [3, 6]: 100%
% Wolbachia reduction cf median Vehicle [4, 7]: 99.7%

CC1COC[C@@H](C)N1c1nc(NCc2ccccc2C(F)(F)F)c2cccnc2n1 (stereo partly drawn) [Example 277, 2-((3R)-3,5-dimethylmorpholino)-N-(2-(trifluoromethyl)benzyl)pyrido[2,3-d]pyrimidin-4-amine]
EC50 ([5]; 168 h): 10 to 100 nM

CN(C)c1ccc(O)c2c1C[C@H]1C[C@H]3[C@H](N(C)C)C(O)=C(C(N)=O)C(=O)[C@@]3(O)C(O)=C1C2=O [MIN, minocycline, reference compound]
% Microfilaria (Mf) production reduction cf median Vehicle ([3]; BALB/c CCR3−/− mice, oral, 25 MK bid + 28 d treatment + 14 d wash-out): 100%
% Wolbachia reduction cf median Vehicle ([4]; Table 5A, BALB/c CCR3−/− mice, oral, 25 MK bid + 28 d, worms recovered 12 weeks post-infection): 83.6%
% Wolbachia reduction cf median Vehicle ([4]; Table 5B, BALB/c CCR3−/− mice, oral, 25 MK bid + 28 d treatment + 14 d wash-out): 98.2%

C[C@H]1COCCN1c1nc(NCc2ccccc2C(F)(F)F)c2cccnc2n1 [Example 208, (S)-2-(3-methylmorpholino)-N-(2-(trifluoromethyl)benzyl)pyrido[2,3-d]pyrimidin-4-amine]
EC50 ([5]; 168 h): < 0.01 nM

Cc1nc(N(C)C(C)c2ccccc2C(F)(F)F)c2sccc2n1 (stereo not shown) [Example 66, N,2-dimethyl-N-(1-(2-(trifluoromethyl)phenyl)ethyl)thieno[3,2-d]pyrimidin-4-amine]
EC50 ([5]; 168 h): 1 to 10 nM

CC(C)Nc1nc(N2CCOCC2c2ccccc2C(F)(F)F)c2cccnc2n1 (stereo not shown) [Example 187, N-isopropyl-4-(3-(2-(trifluoromethyl)phenyl)morpholino)pyrido[2,3-d]pyrimidin-2-amine]
EC50 ([5]; 168 h): 1000 to 100000 nM

2-((3,3-difluoropyrrolidin-1-yl)methyl)-N-((2-(trifluoromethyl)pyridin-3-yl)methyl)pyrido[2,3-d]pyrimidin-4-amine [Example 225]
EC50 [5]: 1000 to 100000 nM

FC1(F)CN(c2nc(NCc3cccnc3C(F)(F)F)c3cccnc3n2)CC(F)(F)O1 [Example 295, 2-(2,2,6,6-tetrafluoromorpholino)-N-((2-(trifluoromethyl)pyridin-3-yl)methyl)pyrido[2,3-d]pyrimidin-4-amine]
EC50 ([5]; 168 h): 10 to 100 nM

FC(F)(F)c1ccccc1CNc1nc(NC2COC2)nc2ncccc12 [Example 144, N^2-(oxetan-3-yl)-N^4-(2-(trifluoromethyl)benzyl)pyrido[2,3-d]pyrimidine-2,4-diamine]
EC50 ([5]; 168 h): 10 to 100 nM

[2H]c1cc2nc(C)nc(N(C)C(C)c3ccccc3C(F)(F)F)c2s1 (stereo not shown) [Example 71]
EC50 ([5]; 168 h): 10 to 100 nM

CC(C)Nc1nc(NCc2ccc(Cl)cc2)c2ccccc2n1 [Example 136, N^4-(4-chlorobenzyl)-N^2-isopropylquinazoline-2,4-diamine]
EC50 ([5]; 168 h): 1000 to 100000 nM

O=C(Nc1nc(NCc2cccnc2C(F)(F)F)c2cccnc2n1)Nc1ccccc1F [Example 206, 1-(2-fluorophenyl)-3-(4-(((2-(trifluoromethyl)pyridin-3-yl)methyl)amino)pyrido[2,3-d]pyrimidin-2-yl)urea]
EC50 ([5]; 168 h): 100 to 1000 nM

CC(Nc1ncnc2c(Br)csc12)c1ccccc1C(F)(F)F (stereo not shown) [Example 106, 7-bromo-N-(1-(2-(trifluoromethyl)phenyl)ethyl)thieno[3,2-d]pyrimidin-4-amine]
EC50 ([5]; 168 h): 1000 to 100000 nM

Source: patent US11518760B2 (Liverpool School of Tropical Medicine, priority 2017, dated 2022)
